Earlier results, collected in patent US10493079B2, “Stable carfilzomib formulations” (Cipla Limited, priority 2016, dated 2019).

For CC(C)C[C@H](NC(=O)[C@H](CCc1ccccc1)NC(=O)CN1CCOCC1)C(=O)N[C@@H](Cc1ccccc1)C(=O)N[C@@H](CC(C)C)C(=O)[C@@]1(C)CO1 [carfilzomib], which aqueous solubility is on record?
The aqueous solubility was “extremely low”.
